Measured values as given in US20240336596A1, “PARP7 INHIBITOR AND USE THEREOF” (NOVOSTAR PHARMACEUTICALS, LTD., priority 2022, published 2024).

Columns and labels:
[1] = Pharmacokinetic study in mice (IV and oral gavage); format: in vivo, CD-1 mice; settings: for AUClast (plasma exposure) relative to RBN-2397 / drug plasma half-life (T1/2) relative to RBN-2397 / drug clearance (CL(iv)) relative to RBN-2397 / maximum blood concentration (Cmax) relative to RBN-2397: mice; for drug plasma half-life (T1/2) relative to RBN-2397 / drug clearance (CL(iv)) relative to RBN-2397: intravenous administration; for drug clearance (CL(iv)) relative to RBN-2397: fraction of RBN-2397 value; for clearance / bioavailability / AUC(0-t) / half-life / Cmax: mouse, plasma, male CD-1 mice; for clearance: read-out: CL(iv) (converted); for bioavailability: oral bioavailability, PO 10 mg/kg vs IV 3 mg/kg
Method: Formulation of intravenous and oral gavage administration solutions: The compounds to be tested were dissolved in solutions formulated with 5% DMSO, 10% solutol HS15, and 85% saline.
Dosage (measured as the amount of compound in the administration solution (mg)/mouse body weight (kg)): 3 mg/kg intravenously (IV), 10 mg/kg oral gavage (PO).
A total of 18 CD-1 mice (Shanghai Jihui Experimental Animal Feeding Co., LTD.), male, weight 28-31 g, were fasted for 12 hours and randomly divided into 2 groups (Group A and Group B) with 9 mice in each group. Animals in Group A were given the compound solution by oral gavage at the dose of 10 mg/kg. Animals in Group B were given the compound solution by tail vein injection at the dose of 3 mg/kg, and blank blood was taken before administration. About 110 μL of venous blood was taken from animals in Group A at 0.25 h, 0.5 h, 1 h, 2 h, 4 h, 8 h, and 24 h after administration. About 110 μL of venous blood was taken from animals in Group B at 0.083 h, 0.25 h, 0.5 h, 1 h, 2 h, 4 h, 8 h, and 24 h after administration, and all were placed in test tubes with heparin, centrifuged, and plasma was collected and stored at −70° C. for testing.
AUClast represents the area under the drug time curve from the beginning of the administration time to the last point, that is, the area surrounded by the blood drug concentration curve to the time axis. CL(iv) represents the drug clearance of intravenous administration; T1/2 represents the plasma half-life of the drug, which refers to the time required for half of the drug to be eliminated from the body. Cmax represents the maximum concentration of the drug in the plasma after administration. F % indicates oral bioavailability of the drug.

NCI-H1373 cancer cells = assay: NCI-H1373 cancer cell growth inhibition (CellTiter-Glo, 144 hours); format: cell-based; settings: Homo sapiens, 144 hours culture
Method in brief: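 Cells seeded at 3500/well and dosed after 24 h with a 10-point series from 10 μM down to 0.0005 μM (0.2% DMSO). After 144 h, viability was read by CellTiter-Glo luminescence. Growth inhibition was calculated relative to day-0 and solvent-control RLU, and IC50 was obtained from dose-response curve fits.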

[2] = target: T1, recombinant human PARP7 protein (Homo sapiens, UniProt Q7Z3E1); assay: Inhibition of PARP7 biological enzyme activity (histone-coated plate, Biotin-NAD+, chemiluminescence); format: biochemical; settings: recombinant human PARP7, Biotin-NAD+ substrate
T1 construct: purchased Abcam ab271651
T1 sequence (Q7Z3E1 1-657): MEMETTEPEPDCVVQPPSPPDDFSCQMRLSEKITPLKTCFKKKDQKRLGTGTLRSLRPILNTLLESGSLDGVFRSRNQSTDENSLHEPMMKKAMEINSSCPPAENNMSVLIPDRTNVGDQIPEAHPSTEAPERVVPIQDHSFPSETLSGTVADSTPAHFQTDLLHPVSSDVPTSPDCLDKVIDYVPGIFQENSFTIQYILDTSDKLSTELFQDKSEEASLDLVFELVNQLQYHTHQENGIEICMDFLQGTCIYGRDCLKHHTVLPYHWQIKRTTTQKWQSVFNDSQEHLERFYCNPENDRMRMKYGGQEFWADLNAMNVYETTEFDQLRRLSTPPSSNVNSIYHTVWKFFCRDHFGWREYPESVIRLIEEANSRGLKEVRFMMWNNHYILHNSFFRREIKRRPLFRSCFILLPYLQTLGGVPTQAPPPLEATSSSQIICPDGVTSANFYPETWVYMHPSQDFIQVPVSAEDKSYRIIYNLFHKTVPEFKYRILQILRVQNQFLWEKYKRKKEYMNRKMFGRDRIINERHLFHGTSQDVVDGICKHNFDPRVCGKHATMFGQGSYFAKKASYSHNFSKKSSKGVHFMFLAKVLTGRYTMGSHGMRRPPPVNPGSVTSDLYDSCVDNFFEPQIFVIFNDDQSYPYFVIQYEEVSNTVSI
Method in brief: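 Recombinant human PARP7 was preincubated with compound (1000–0.05 nM final) on histone-coated plates for 15 min at 25 °C, then reacted with Biotin-NAD+ for 60 min at 25 °C. Ribosylation was detected by streptavidin-HRP chemiluminescence. IC50 was fitted from % inhibition relative to controls.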

| AUClast (plasma exposure) relative to RBN-2397 ([1]; 3 mg/kg intravenous injection) | drug plasma half-life (T1/2) relative to RBN-2397 [1] [times] | drug clearance (CL(iv)) relative to RBN-2397 [1] | clearance ([1]; IV 3 mg/kg) [mL/min/kg] | bioavailability [1] [%] | AUC(0-t) ([1]; IV 3 mg/kg) [ng·h/mL] | half-life ([1]; IV 3 mg/kg) [h] | AUC(0-t) ([1]; PO 10 mg/kg) [ng·h/mL] | Cmax ([1]; PO 10 mg/kg) [ng/mL] | AUClast (plasma exposure) relative to RBN-2397 ([1]; oral gavage 10 mg/kg) | maximum blood concentration (Cmax) relative to RBN-2397 ([1]; oral gavage 10 mg/kg) [times] | IC50 (NCI-H1373 cancer cells) [nM] | IC50 [2] [nM] | SMILES |
| --- | --- | --- | --- | --- | --- | --- | --- | --- | --- | --- | --- | --- | --- |
| about 4.4 times | 8 | about ⅕ | 15.5 | 61.3 | 3210 | 1.62 | 6550 | 5320 | about 11.3 times | 7.8 | < 100 | < 10 | C[C@@H](CONC(=O)CC1CCN(c2ncc(C(F)(F)F)cn2)CC1)Nc1cn[nH]c(=O)c1C(F)(F)F [Example 17, (S)—N-(2-((6-oxo-5-(trifluoromethyl)-1,6-dihydropyridazin-4-yl)amino)propoxy)-2-(1-(5-(trifluoromethyl)pyrimidin-2-yl)piperidin-4-yl)acetamide] |
| about 3.8 times | 27.8 | about ⅕ | 17.8 | 75.9 | 2780 | 5.55 | 7060 | 7230 | ~12.1 times | 10.6 | < 100 | – | C[C@@H](CONC(=O)CC1=CCN(c2ncc(C(F)(F)F)cn2)CC1)Nc1cn[nH]c(=O)c1C(F)(F)F [Example 25, (S)—N-(2-((6-oxo-5-(trifluoromethyl)-1,6-dihydropyridazin-4-yl)amino)propoxy)-2-(1-(5-(trifluoromethyl)pyrimidin-2-yl)-1,2,3,6-tetrahydropyridin-4-yl)acetamide] |
